Laboratory results as given in patent US8221762B2, “Naturally processed measles virus peptides from class II HLA molecules” (priority 2004, dated 2012).

Tests used:
[1] = system: PBMC from subjects previously immunized with MMR-II vaccine; assay: T cell proliferation assay ([3H]-thymidine, 3 days, SI cut point 3.0), Example 1; type: cell-based, human; settings: 95 subjects
Source text: Study participants included ninety-five healthy residents of Olmsted County, Minn., aged 11 to 18 years. […] Mononuclear leukocytes were isolated by Ficoll-Hypaque (Amersham) density gradient centrifugation.
For descriptive analyses, we used medians and ranges for continuous variables and frequencies for categorical variables. We compared cpm for MV-stimulated, MV-P1-stimulated and MV-P2-stimulated cells with unstimulated cells using Wilcoxon signed rank tests. Associations between the continuously distributed stimulation indices for MV-P1, MV-P2 peptides, and MV were determined using Spearman rank correlation coefficients. Stimulation indices were subsequently dichotomized into positive or negative using a cut point of 3.0. We then compared MV positivity with MV-P1 and MV-P2 positivity using estimates of sensitivity.

[2] = system: PBMC of subjects previously immunized with MMR-II vaccine; assay: T cell proliferation assay ([3H]-thymidine, 4 days, SI>2 positive), Example 3; settings: 131 subjects (MV-P2 130, MV-F 43)
Description: Briefly, study participants were enrolled as part of a larger stratified random sample study to assess associations between HLA genes and immune response to measles-mumps-rubella-II (MMR-II) vaccine in healthy, school-age children and young adults (ages 12 to 18 years). To evaluate the cellular responses to measles peptides, 131 subjects were used. In addition, a random subset of 43 individuals was tested for reactivity to a control measles fusion (F) peptide. All enrolled subjects had been previously immunized with two doses of MMR-II vaccine (Merck Research, West Point, Pa.) containing the attenuated Edmonston strain of MV. All but four of these participants were Caucasian and all subjects resided in a geographic area where no wild-type MV had circulated in the community during the subjects' lifetimes.
In brief, peripheral blood mononuclear cells (PBMC) were separated from heparinized blood by Ficoll-Hypaque (Sigma, St. Louis, Mo.) density gradient centrifugation and washed in RPMI 1640 medium (Celox Laboratories, Inc., St. Paul, Minn.) supplemented with 2 mM L-glutamine, 100 μg/ml streptomycin, 100 U/ml penicillin and 8% fetal calf serum (Life Technologies, Gaithersburg, Md.). Measles virus, MV-P1, MV-P2, and MV-F specific T cell responses were measures by proliferation of PBMC (2×10^5) incubated in RPMI-1640 medium, supplemented with 5% autologous sera, with live attenuated MV (50 pfu/ml, positive control) or synthetic peptides (20 μg/ml) compared to unstimulated cell control wells. Phytohemagglutinin (PHA, 5 μg/ml) was used to assess cell vitality. Only assays in which PBMC responded to PHA were accepted. T lymphocyte proliferation was measured after 4 days by [^3H]-tritiated thymidine uptake. Cells were then harvested onto glass fiber filters, using a 96-well harvesting system (Skatron Instruments, Norway). The amount of incorporated radioactivity was determined by a liquid scintillation counter (Packard Instrument Company, Boston, Mass.). We used six replicates of counts per minute (cpm) values for unstimulated cells, and three replicates each for T cells stimulated with peptides and live measles vaccine. For each subject, median cpm were calculated for unstimulated cells, as well as for cells stimulated with MV-P1, MV-P2, MV-F and measles. Results were then expressed as antigen-specific stimulation indices (SI), defined as the ratio of the median cpm of antigen-stimulated wells to the median cpm of unstimulated control wells. […] SI>2 was arbitrarily selected prior to the study as an indication of the presence of reactive peptide specific memory T cells, and SI<2 as an indicator of the lack of memory T lymphocytes to measles-derived peptides (Pauksen, et al., Bone Marrow Transplant 20:317-323, 1997).
Three outcomes were of primary interest: T cell proliferation (as measured by stimulation indices) induced separately by live MV, the MV-P1 peptide, and the MV-P2 peptide variant. Data were descriptively summarized using frequencies and percentages for all categorical variables, and medians and ranges for all continuous variables.

[3] = system: PBMC of subjects previously immunized with MMR-II vaccine; assay: IL-4 supernatant cytokine response (ELISA) to measles virus and synthetic measles peptides; type: cell-based, human; settings: for Median secretion value IL-4: stimulated minus control cells
Description: (§1) To evaluate the immunogenicity of measles-derived peptides, 281 of these subjects (age 12 to 18 years) were studied.
(§2) Cryopreserved PBMC were used to measure cytokine responses to measles-derived peptides. We thawed cryopreserved PBMC at a concentration of 1×10^7 cells/mL using standard protocol. The vials were rapidly thawed in a 37° C. water bath and then washed twice with 10× volume of complete RPMI 1640 media supplemented with 10% FCS at 700 rpm for 5 minutes. The final cell pellet was resuspended in complete RPMI media containing penicillin-streptomycin (100 U/mL) and supplemented with 5% normal human AB sera (Ervin Sci., Santa Ana, Calif.). For IFN-γ determination, thawed PBMC were cultured at a concentration of 2×10^5 in RPMI containing 5% normal human AB sera with or without measles peptides (10 μg/well) and MV (positive control) at a moi of 0.5 for 6 days. For IL-4 determination in cell culture supernatants, we cultured thawed PBMC at a concentration of 4×10^5 in RPMI media, supplemented with 5% normal human AB sera. Cells were cultured in the presence of 2 μg/mL of IL-4 receptor antibody (R&D Systems, Minneapolis, Minn.) (Ekerfelt, et al., J. Immunol. Methods 260:55-67, 2002) with or without synthetic measles-derived peptides (10 μg/well) and MV (positive control) at a moi of 0.1 for 6 days. Cell culture supernatants were collected in a volume of 150 μl/well for both IFN-γ and IL-4 and were frozen at […] until assayed. The culture supernatants were assayed using a standard ELISA protocol (OptiEtA Human IFN-γ and IL-4, PharMingen, San Diego, Calif.) at a dilution of 1:1 in PBS containing 10% FCS. ELISA plates (Immulon-4, DYNEX Technologies Inc, Chantilly, Va.) were coated with capture IFN-γ or IL-4 mAb and incubated overnight at 4° C. The antibody-coated plates were incubated with diluted supernatant samples for 2 hours at room temperature followed by incubation with biotinylated mouse anti-human IFN-γor IL-4 conjugated to avidin-horseradish peroxidase for 1 hour at room temperature. The absorbance of the product was read using a microplate reader (Molecular Devices, Sunnyvale, Calif.) at 450 nm. The IFN-γ and IL-4 concentration of test samples was calculated by reference to the standard curve. Unstimulated and MV-stimulated secretion measurements for IFN-γ were performed in triplicate, while all other secretion measurements for both IFN-γ and IL-4 were performed in duplicate. Individual-specific values were then summarized by taking means of the duplicate or triplicate values. Mean background levels of IFN-γ and IL-4 cytokine production in cultures not stimulated with measles peptides or MV was subtracted from the mean antigen-induced responses to produce “corrected” secretion values. Negative corrected values indicate that the unstimulated secretion levels were, on average, higher than the stimulated secretion levels.
(§3) Two criteria were established to define positive responses for secreted IFN-γ and IL-4 cytokines using ELISA.

[4] = system: PBMC of subjects previously immunized with MMR-II vaccine; assay: IFN-γ supernatant cytokine response (ELISA) to measles virus and synthetic measles peptides; type: cell-based, human; settings: for Median secretion value IFN-γ: stimulated minus control cells
Description: as §1, §2, §3

[5] = peptides 20 μg/ml, MV 50 PFU/well
[6] = peptides 20 μg/ml, MV 50 pfu/ml, 4 days
[7] = 281 subjects, stimulated cells minus unstimulated cells

CC[C@H](C)[C@H](NC(=O)[C@H](CCC(=O)O)NC(=O)CNC(=O)CNC(=O)[C@H](CCC(=O)O)NC(=O)[C@H](C)NC(=O)[C@@H](NC(=O)[C@H](CCC(=O)O)NC(=O)[C@@H](NC(=O)[C@H](CC(=O)O)NC(=O)[C@H](CO)NC(=O)[C@H](C)N)C(C)C)[C@@H](C)O)C(=O)N[C@@H](Cc1c[nH]cn1)C(=O)N[C@@H](CCC(=O)O)C(=O)N[C@@H](CC(C)C)C(=O)N[C@@H](CC(C)C)C(=O)N[C@@H](CCCNC(=N)N)C(=O)N[C@@H](CC(C)C)C(=O)N[C@@H](CCC(N)=O)C(=O)O [MV-P1]
subjects with stimulation index greater than 3.0 (recognized) [1]: 17% | stimulation index, median [1, 5]: 1.4 | stimulation index, range [1, 5]: 0.5-20.3 | median cpm value, lymphoproliferative assay ([1]; peptides 20 μg/ml, live attenuated MV 50 PFU/well, 3 days): 472 cpm | subjects with stimulation index greater than 2 (positive lymphoproliferative response) [2]: 41% | stimulation index, median [2, 6]: 1.7 | stimulation index, range [2, 6]: 0.5-20.3 | IL-4 % Response (>10 pg/mL) ([3]; 281 subjects, peptides 10 μg/well, MV moi 0.1, 6 days): 19.2% | IL-4 Median level [3, 7]: -0.4 pg/mL | Median secretion value IL-4 ([3]; All other HLA-DRB1 alleles): -1.3 pg/mL | Median secretion value IL-4 ([3]; HLA-DRB1 allele *0101): 1.1 pg/mL | Median secretion value IL-4 ([3]; HLA-DRB1 allele *0102): 5.6 pg/mL | Median secretion value IL-4 ([3]; HLA-DRB1 allele *0103): -1.5 pg/mL | Median secretion value IL-4 ([3]; HLA-DRB1 allele *0301): 3.5 pg/mL | Median secretion value IL-4 ([3]; HLA-DRB1 allele *0401): 0.9 pg/mL | Median secretion value IL-4 ([3]; HLA-DRB1 allele *0402): 3.8 pg/mL | Median secretion value IL-4 ([3]; HLA-DRB1 allele *0404): 0.3 pg/mL | Median secretion value IL-4 ([3]; HLA-DRB1 allele *0407): -2.1 pg/mL | Median secretion value IL-4 ([3]; HLA-DRB1 allele *0701): -0.6 pg/mL | Median secretion value IL-4 ([3]; HLA-DRB1 allele *0801): -1.4 pg/mL | Median secretion value IL-4 ([3]; HLA-DRB1 allele *0901): -0.9 pg/mL | Median secretion value IL-4 ([3]; HLA-DRB1 allele *1001): 0.9 pg/mL | Median secretion value IL-4 ([3]; HLA-DRB1 allele *1101): -3.7 pg/mL | Median secretion value IL-4 ([3]; HLA-DRB1 allele *1103): -3.5 pg/mL | Median secretion value IL-4 ([3]; HLA-DRB1 allele *1104): -1.3 pg/mL | Median secretion value IL-4 ([3]; HLA-DRB1 allele *1201): -0.4 pg/mL | Median secretion value IL-4 ([3]; HLA-DRB1 allele *1301): -3.0 pg/mL | Median secretion value IL-4 ([3]; HLA-DRB1 allele *1302): 1.2 pg/mL | Median secretion value IL-4 ([3]; HLA-DRB1 allele *1303): -4.2 pg/mL | Median secretion value IL-4 ([3]; HLA-DRB1 allele *1401): -0.8 pg/mL | Median secretion value IL-4 ([3]; HLA-DRB1 allele *1501): -0.7 pg/mL | Median secretion value IL-4 ([3]; HLA-DRB1 allele *03011): 0.2 pg/mL | Median secretion value IL-4 ([3]; Overall (281)): -0.4 pg/mL | MV IL-4 responders who also responded to the peptide ([3]; among the 143 subjects with IL-4 production from MV-stimulated PBMC): 23.1% | IFN-γ % Response (>20 pg/mL) ([4]; 281 subjects, peptides 10 μg/well, MV moi 0.5, 6 days): 55.9% | IFN-γ Median level [4, 7]: 28.0 pg/mL | Median secretion value IFN-γ ([4]; All other HLA-DRB1 alleles): 26.7 pg/mL | Median secretion value IFN-γ ([4]; HLA-DRB1 allele *0101): 51.2 pg/mL | Median secretion value IFN-γ ([4]; HLA-DRB1 allele *0102): 17.6 pg/mL | Median secretion value IFN-γ ([4]; HLA-DRB1 allele *0103): 116.2 pg/mL | Median secretion value IFN-γ ([4]; HLA-DRB1 allele *0301): 40.8 pg/mL | Median secretion value IFN-γ ([4]; HLA-DRB1 allele *0401): 33.5 pg/mL | Median secretion value IFN-γ ([4]; HLA-DRB1 allele *0402): 0.1 pg/mL | Median secretion value IFN-γ ([4]; HLA-DRB1 allele *0404): 52.2 pg/mL | Median secretion value IFN-γ ([4]; HLA-DRB1 allele *0407): 8.6 pg/mL | Median secretion value IFN-γ ([4]; HLA-DRB1 allele *0701): 18.6 pg/mL | Median secretion value IFN-γ ([4]; HLA-DRB1 allele *0801): 27.2 pg/mL | Median secretion value IFN-γ ([4]; HLA-DRB1 allele *0901): 19.9 pg/mL | Median secretion value IFN-γ ([4]; HLA-DRB1 allele *1001): 46.9 pg/mL | Median secretion value IFN-γ ([4]; HLA-DRB1 allele *1101): 48.5 pg/mL | Median secretion value IFN-γ ([4]; HLA-DRB1 allele *1103): 65.3 pg/mL | Median secretion value IFN-γ ([4]; HLA-DRB1 allele *1104): 15.4 pg/mL | Median secretion value IFN-γ ([4]; HLA-DRB1 allele *1201): 14.6 pg/mL | Median secretion value IFN-γ ([4]; HLA-DRB1 allele *1301): 27.4 pg/mL | Median secretion value IFN-γ ([4]; HLA-DRB1 allele *1302): 14.2 pg/mL | Median secretion value IFN-γ ([4]; HLA-DRB1 allele *1303): 63.9 pg/mL | Median secretion value IFN-γ ([4]; HLA-DRB1 allele *1401): 22.5 pg/mL | Median secretion value IFN-γ ([4]; HLA-DRB1 allele *1501): 32.8 pg/mL | Median secretion value IFN-γ ([4]; HLA-DRB1 allele *03011): 18.7 pg/mL | Median secretion value IFN-γ ([4]; Overall (281)): 28.0 pg/mL | MV IFN-γ responders who also produced IFN-γ to the peptide ([4]; among the 185 subjects who responded to MV): 59.5%
